# Read-outs that look alike come from different tables or passages of the source. Non-standard residues stand in square brackets, D forms with d. Residues, ends and D or L forms follow the SMILES beside them.
# Tests used:
# [1] = system: BALB/c mice; experiment: Induction of anti-dsDNA antibodies after intravenous peptide injection; type: in vivo, mouse; conditions: same dosages, frequencies and treatment period as MRL/lpr study, data not shown
# Description: The ALW and PLP peptides were also intravenously injected into BALB/c mice with the same dosages, frequencies, and treatment period. […] All animal protocols were approved by the Hospital Research Ethics Committee.
# [2] = system: anti-dsDNA IgGs; conditions: cited from earlier work
# Description: The ALW peptide is a small molecule with a molecular weight of 1.4 kDa. […] Because there is no methionine, cysteine, and glutamine, which are related with the oxidation, cyclization, and degradation of peptides, ALW may have greater physiological stability. In addition, the ALW peptide has a relatively neutral net charge (pI = 7.38), which probably decrease unnecessary, nonspecific protein-protein interactions. […] Here, after chemical modification ...
# [3] = Tissue biodistribution of ALW peptide (kidney, liver, lung); type: in vivo, CD1 mice
# Description: (§1) Two 12-amino acid peptides (ALWPPNLHAWVP [ALW]; PLPHNPWVLAAW [PLP]) were synthetized by Sangon Biotech Company (China). The PLP peptide was a scrambled peptide with amino acid residues identical to ALW peptide. The first and last amino acids of both peptides are D-form, and the others are L-form. To study the pharmacokinetic characteristics of both peptides in vivo, 8-week-old male CD1 mice were administrated with ALW or PLP peptide at a single dose of 12.5 mg/kg. Plasma samples were collected at each time point before (0) and 0.083, 0.25, 0.5, 1, 2, 4, 8, and 24 h after administration. To assess the biodistribution of ALW peptide in vivo, tissues including the kidney, liver, and lung were collected at 0.083, 0.25, 0.5, 1, 2, and 4 h after administration. Then, the concentration of two peptides in mouse plasma and tissues were quantitatively determined by liquid chromatography-tandem mass spectrometry (LC-MS/MS). The pharmacokinetic parameters were calculated by WinNonlin 6.1 software according to the […] model.
# [4] = Plasma pharmacokinetics of the peptides after a single dose; type: in vivo; conditions: 8-week-old male CD1 mice, single intravenous dose 12.5 mg/kg, plasma 0-24 h, LC-MS/MS, WinNonlin 6.1; for MRT: male, CD1, mouse, plasma, iv, 12.5 mg/kg; for clearance: read-out: Cl (plasma clearance); for Vd: read-out: Vss
# Description: as §1
# [5] = Solubility of the peptides; type: physicochemical; conditions: for Maximum solubility: injection solution in saline
# Description: For the in vivo study, 40 MRL/lpr mice were randomly divided into four groups. Mice in the ALW group (n = 12) received an intravenous injection of 100 μg/mL ALW peptide in saline every other day, mice in the PLP group (n = 12) were injected intravenously with 100 μg/mL PLP peptide in saline, mice in the NaCl group (n = 8) were given normal saline intravenously, and mice in the blank group (n = 8) were not treated. The dosages were decided in a preliminary experiment, showing that the concentration of anti-dsDNA IgG was about 34.74 ± 3.47 ng/mL in MRL/lpr mice aged 24 weeks. By calculating the molecular weights of anti-dsDNA IgG (150 kDa) to ALW peptide (1.4 kDa), the ALW concentration of 100 μg/mL is sufficient to maintain a high molar ratio (much higher than 5 times of anti-dsDNA IgG). In fact, the maximum solubility of PLP peptide is also 100 μg/mL, less than ALW peptide. Urine was collected every 2 weeks. Six weeks later, the mice were euthanized. Blood, urine, and kidneys were harvested for further analysis.
# [6] = system: murine model; conditions: cited from earlier work
# Description: IgG2a and IgG3 had higher affinity for autoantigens in the kidney, followed by IgG1, IgG2b, and IgM [12]. DWEYS peptide (DWEYSVWLSN) is a DNA-mimic peptide screened by a mouse pathogenic monoclonal antibody (IgG2b, R4A clone). […] FISLE-412, a peptide compound mimicking the molecular structure of DWEYS ... || Given the key role of anti-dsDNA antibodies in the pathogenesis of LN, development of specific inhibitors of anti-dsDNA antibodies may be a good method to manage LN. Several polypeptides, specifically reacting with mouse anti-dsDNA IgG2b, were identified by the peptide display phage library. […] FISLE-412, a small peptidomimetic modified from DWEYS peptide, blocked the binding of DNA to monoclonal mouse and human anti-dsDNA antibodies with improved affinity and selectivity. In ...
# [7] = system: NZB×NZW F1 lupus mice; conditions: intravenous once a month; cited from earlier work
# Description: Given the key role of anti-dsDNA antibodies in the pathogenesis of LN, development of specific inhibitors of anti-dsDNA antibodies may be a good method to manage LN. Several polypeptides, specifically reacting with mouse anti-dsDNA IgG2b, were identified by the peptide display phage library. […] FISLE-412, a small peptidomimetic modified from DWEYS peptide, blocked the binding of DNA to monoclonal mouse and human anti-dsDNA antibodies with improved affinity and selectivity. In ...
# [8] = 8-week-old male CD1 mice, single intravenous dose 12.5 mg/kg, kidney tissue 0.083-4 h, LC-MS/MS, WinNonlin 6.1
# [9] = 8-week-old male CD1 mice, single intravenous dose 12.5 mg/kg, liver tissue 0.083-4 h, LC-MS/MS, WinNonlin 6.1
# [10] = 8-week-old male CD1 mice, single intravenous dose 12.5 mg/kg, lung tissue 0.083-4 h, LC-MS/MS, WinNonlin 6.1
# [11] = read-out: MRT0-inf (mean residence time) in plasma
compound,measurement,setting,value
CC(C)C[C@H](NC(=O)[C@H](CC(N)=O)NC(=O)[C@@H]1CCCN1C(=O)[C@@H]1CCCN1C(=O)[C@H](Cc1c[nH]c2ccccc12)NC(=O)[C@H](CC(C)C)NC(=O)[C@@H](C)N)C(=O)N[C@@H](Cc1c[nH]cn1)C(=O)N[C@@H](C)C(=O)N[C@@H](Cc1c[nH]c2ccccc12)C(=O)N[C@H](C(=O)N1CCC[C@@H]1C(=O)O)C(C)C [ALW peptide] (H-[dA]LWPPNLHAWV[dP]-OH),Anti-dsDNA antibodies in sera after treatment (immunogenicity),[1],induced no anti-dsDNA antibodies
same,Anti-dsDNA antibodies in sera after treatment (immunogenicity),[1]; listed as ALW,no detectable anti-dsDNA antibodies
same,Resistance of the peptide to catalysis,[2]; after substituting two terminal residues A and P with D-form ones,enhanced
same,Catalysis of the peptide by anti-dsDNA IgGs,[2]; unmodified peptide,catalyzed weakly
same,AUC0-inf in kidney,[3]; [8],28.80 ng·h/g
same,AUC0-last in kidney,[3]; [8],25.51 ng·h/g
same,Cmax in kidney,[3]; [8],60.00 ng/g
same,MRT0-inf in kidney,[3]; [8],27.6 min
same,MRT0-last in kidney,[3]; [8],19.8 min
same,T1/2 in kidney,[3]; [8],18.6 min
same,Tmax in kidney,[3]; [8],4.8 min
same,"Kp, kidney","[3]; 8-week-old male CD1 mice, single intravenous dose 12.5 mg/kg, kidney versus plasma",0.11
same,AUC0-last in liver,[3]; [9],2.29 ng·h/g
same,Cmax in liver,[3]; [9],11.80 ng/g
same,MRT0-last in liver,[3]; [9],8.4 min
same,Tmax in liver,[3]; [9],4.8 min
same,"Kp, liver","[3]; 8-week-old male CD1 mice, single intravenous dose 12.5 mg/kg, liver versus plasma",0.01
same,AUC0-last in lung,[3]; [10],5.10 ng·h/g
same,Cmax in lung,[3]; [10],7.33 ng/g
same,MRT0-last in lung,[3]; [10],29.4 min
same,Tmax in lung,[3]; [10],15 min
same,"Kp, lung","[3]; 8-week-old male CD1 mice, single intravenous dose 12.5 mg/kg, lung versus plasma",0.02
same,Renal tissue exposure as share of plasma exposure,"[3]; CD1 mice, intravenous 12.5 mg/kg, kidney",approximately 11.2%
same,Liver tissue exposure as share of plasma exposure,"[3]; CD1 mice, intravenous 12.5 mg/kg, liver",0.892%
same,Lung tissue exposure as share of plasma exposure,"[3]; CD1 mice, intravenous 12.5 mg/kg, lung",1.99%
same,AUC0-inf in plasma,[4],264 ng·h/mL
same,AUC0-last in plasma,[4],258 ng·h/mL
same,MRT0-inf (mean residence time) in plasma,[4],7.8 min
same,T1/2 (elimination half-life) in plasma,[4],18.9 min
same,MRT,[4]; [11],7.8 min
same,MRT,[4]; read-out: MRT0-last in plasma,6 min
same,C0,[4]; mouse,3640 ng/mL
same,clearance,[4]; mouse,789 mL/min/kg
same,half-life,"[4]; mouse, read-out: T1/2 (elimination half-life) in plasma (converted)",19.2 min
same,Vd,[4]; mouse,6.16 L/kg
same,Maximum solubility,[5],> 100 µg/mL
same,Solubility in water or PBS,[5]; water or PBS,easy to dissolve in water or PBS
"CC(C)C[C@H](NC(=O)[C@@H](NC(=O)[C@H](Cc1c[nH]c2ccccc12)NC(=O)[C@@H]1CCCN1C(=O)[C@H](CC(N)=O)NC(=O)[C@H](Cc1c[nH]cn1)NC(=O)[C@@H]1CCCN1C(=O)[C@H](CC(C)C)NC(=O)[C@H]1CCCN1)C(C)C)C(=O)N[C@@H](C)C(=O)N[C@@H](C)C(=O)N[C@H](Cc1c[nH]c2ccccc12)C(=O)O [PLP peptide, reference compound] (H-[dP]LPHNPWVLAA[dW]-OH)",Anti-dsDNA antibodies in sera after treatment (immunogenicity),[1],no detectable anti-dsDNA antibodies
same,MRT0-inf (mean residence time) in plasma,[4],13.6 min
same,MRT,[4]; [11],13.8 min
same,MRT,[4]; read-out: MRT0-last in plasma,11.4 min
same,C0,[4]; mouse,85400 ng/mL
same,AUC(0-inf),"[4]; mouse, read-out: AUC0-inf in plasma",14100 ng·h/mL
same,AUC(0-t),"[4]; mouse, read-out: AUC0-last in plasma",14100 ng·h/mL
same,clearance,[4]; mouse,14.7 mL/min/kg
same,Vd,[4]; mouse,0.2 L/kg
same,Maximum solubility,[5],100 µg/mL
"DWEYSVWLSN [DWEYS peptide, DNA-mimic peptide … screened by a mouse pathogenic monoclonal antibody (IgG2b, R4A clone)]",Renal deposition of IgG2b,[6]; SCID mice,protected SCID mice from the renal deposition of IgG2b
same,Renal IgG deposition,"[6]; murine model, intraperitoneal administration",evidently depressed
"FIEWNKLRFRQGLEW [pCons, 15-mer peptide based on MHC class I and II T cell determinants in the VH region of murine anti-dsDNA IgG2a or IgG2b]",Emergence of multiple autoantibodies,[7],delayed the emergence of multiple autoantibodies

# — publication PMC6889545, “ALW peptide ameliorates lupus nephritis in MRL/lpr mice” (Arthritis Research & Therapy, 2019)
